Literature values, collected in patent US7803392B2, “pH-Sensitive mucoadhesive film-forming gels and wax-film composites suitable for topical and mucosal delivery of molecules” (University of Kentucky Research Foundation, priority 2000, dated 2010).

Experiments:
[1] = buccal administration of 5 mg midazolam
[2] = buccal 10 mg midazolam per 2 mL
[3] = subcutaneous injection twice a day for 8 days, patients

For `Cc1ncc2n1-c1ccc(Cl)cc1C(c1ccccc1F)=NC2` [midazolam], the maximum plasma concentration [1] is listed as 55.9 ng/mL, the mean bioavailability [1] is listed as 74.5% and the “time of maximum plasma concentration” value [1] is listed as 30 min. The “average time to stop seizures after administration” value ([2]; children) was 6 min and the seizures stopped ([2]; children (30/40 seizures)) was 75%.

For `Oc1cc(Cl)ccc1Oc1ccc(Cl)cc1Cl` [Triclosan, 2,4,4′-Trichloro 2′-hydroxy-diphenyl-ether 5-chloro 2-(2,4-dichlorophenoxy)-phenol], the pKa is given as 7.9, the “solubility in alkaline solutions” value (alkaline solutions) is given as “readily soluble” and the solubility in ethanol (ethanol) is given as “soluble”. The “solubility in polyethylene glycol 400” value (polyethylene glycol 400) was “soluble” and the solubility in water (water) was “insoluble”.

For Hirudin, the “lower overall rate of deep-vein thrombosis than low molecular weight heparin” value [3] is given as ~30%.
